Results as given in ChEMBL document CHEMBL1201862, “PubChem BioAssay data set” (2004).
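48-hour exposure; five concentrations; linearly interpolated endpoints. GI50 = concentration required for 50% inhibition of growth.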 Activity calls are given as the source filed them. Cut-off read from the data, not from the text of the source: active = GI50 up to about 1.1 µM and inactive = higher.

Columns and labels:
Test in all cases: NCI tumour cell line growth inhibition, 48 h
UACC-257 = tested on: UACC-257
IGROV-1 = tested on: IGROV-1
SK-OV-3 = tested on: SK-OV-3
T47D = tested on: T47D
CCRF-CEM = tested on: CCRF-CEM
786-0 = tested on: 786-0
SN12C = tested on: SN12C
HT-29 = tested on: HT-29
SK-MEL-5 = tested on: SK-MEL-5
PC-3 = tested on: PC-3
SNB-19 = tested on: SNB-19
SF-295 = tested on: SF-295
EKVX = tested on: EKVX
HOP-92 = tested on: HOP-92
UO-31 = tested on: UO-31
MDA-MB-231 = tested on: MDA-MB-231
HCC 2998 = tested on: HCC 2998
Malme-3M = tested on: Malme-3M
NCI/ADR-RES = tested on: NCI/ADR-RES
Hs-578T = tested on: Hs-578T

| SMILES | GI50 (UACC-257) | GI50 (IGROV-1) | GI50 (SK-OV-3) | GI50 (T47D) | GI50 (CCRF-CEM) | GI50 (786-0) | GI50 (SN12C) | GI50 (HT-29) | GI50 (SK-MEL-5) | GI50 (PC-3) | GI50 (SNB-19) | GI50 (SF-295) | GI50 (EKVX) | GI50 (HOP-92) | GI50 (UO-31) | GI50 (MDA-MB-231) | GI50 (HCC 2998) | GI50 (Malme-3M) | GI50 (NCI/ADR-RES) | GI50 (Hs-578T) |
| --- | --- | --- | --- | --- | --- | --- | --- | --- | --- | --- | --- | --- | --- | --- | --- | --- | --- | --- | --- | --- |
| Cc1ccc2c(c1)Nc1cc(C(F)(F)F)ccc1[PH]2=O (stereo unspecified) | 28.2 µM (inactive) | 25.9 µM (inactive) | 65.2 µM (inactive) | 27.6 µM (inactive) | 14.9 µM (inactive) | 66.4 µM (inactive) | 32.8 µM (inactive) | 21.9 µM (inactive) | 15.3 µM (inactive) | 21.7 µM (inactive) | 18.9 µM (inactive) | 5.57 µM (inactive) | 3.78 µM (inactive) | 14.2 µM (inactive) | 0.225 µM (active) | 13.7 µM (inactive) | 44.6 µM (inactive) | 31.8 µM (inactive) | 67.1 µM (inactive) |  |
| Cc1cccc(NS(=O)(=O)c2ccc(/N=N/c3c(O)c(C(=O)O)cc4ccccc34)cc2)n1 | > 100 µM (inactive) | > 100 µM (inactive) | > 100 µM (inactive) |  | > 100 µM (inactive) | > 100 µM (inactive) |  | > 100 µM (inactive) | > 100 µM (inactive) | > 100 µM (inactive) | > 100 µM (inactive) | > 100 µM (inactive) | > 100 µM (inactive) | > 100 µM (inactive) | > 100 µM (inactive) | > 100 µM (inactive) | > 100 µM (inactive) | > 100 µM (inactive) | > 100 µM (inactive) | > 100 µM (inactive) |
| CCCCCN1C(=O)C(Cc2ccccc2)N=C(c2ccc(O)cc2)c2cc(Cl)ccc21 (stereo unspecified) | 7.66 µM (inactive) | 6.73 µM (inactive) | 18.6 µM (inactive) | 3.72 µM (inactive) | 12.2 µM (inactive) | 13.6 µM (inactive) | > 20.7 µM (inactive) | 9.06 µM (inactive) |  | 6.21 µM (inactive) | 14.5 µM (inactive) | 6.93 µM (inactive) | 8.41 µM (inactive) | 10.7 µM (inactive) | 10.4 µM (inactive) | 17.3 µM (inactive) |  | 7.57 µM (inactive) | 8.11 µM (inactive) | 7.53 µM (inactive) |
| C1=C(c2ccccc2)Nc2nnnn2C1c1ccccc1 (stereo unspecified) | 48.1 µM (inactive) | 83.4 µM (inactive) | 58.1 µM (inactive) | 47.1 µM (inactive) | 0.0125 µM (active) | 47.2 µM (inactive) | 71.3 µM (inactive) | 17.4 µM (inactive) | 40.7 µM (inactive) | 53.2 µM (inactive) | 49.4 µM (inactive) | 28.6 µM (inactive) |  |  | > 100 µM (inactive) | > 100 µM (inactive) |  |  | 44 µM (inactive) | 37.5 µM (inactive) |
